# Tested on: Human Umbilical Vein Endothelial Cells (HUVECs)
# Assay: Inhibition against sandwich tube formation by vascular endothelial cells, VEGF-stimulated
# Format: cell-based
# Settings: HUVEC, 25 ng/ml VEGF and 10 ng/ml EGF, 4th day after addition
# Description: Human Umbilical Vein Endothelial Cells (HUVECs) were isolated according to a reported method (Shinseikagaku Jikken Koza [New Biochemistry Experiment Lectures], “Saibo Baiyo Gijutsu” [Cell Culturing Techniques], p. 197-202), • and were cultured in a 5% CO2 incubator (37° C.) using EGM-2 medium (purchased from Clonetics Corp.) until the cells reached confluency.
# An ice-cooled mixture of collagen: 5×RPMI 1640: reconstitution buffer (all purchased from Nitta Gelatin, Inc.) at 7:2:1 was dispensed at 0.4 ml into each well of a 24-well plate. After the solution was gelled by being stationed for 40 minutes in a 5% CO2 incubator (37° C.), HUVEC cell suspension was added at 0.4 ml to each well (using 1 to 1.2×10^5 cells, though the numbers of cells differ slightly according to the HUVEC lot), the HUVEC cell suspension being in human endothelial serum free medium (SFM, purchased from GIBCO BRL) containing added angiogenesis factors [20 ng/ml FGF2 (purchased from GIBCO BRL) and 10 ng/ml EGF (purchased from GIBCO BRL), or 25 ng/ml VEGF (purchased from Wako Pure Chemical Industries Co., Ltd.) and 10 ng/ml EGF, or 30 ng/ml HGF (purchased from R&D Co.) and 10 ng/ml EGF], and cultured overnight in a 5% CO2 incubator (37° C.). On the following day, the medium on the upper layer was aspirated off, and then 0.4 ml of an ice-cooled mixture of collagen: 5×RPMI 1640: reconstitution buffer (all purchased from Nitta Gelatin, Inc.) at 7:2:1 was superposed into each well prior to stationing for 4 hours in a 5% CO2 incubator (37° C.) for gelling. After adding 1.5 ml of an SFM solution containing each of the aforementioned angiogenesis factors and a diluted test substance onto the upper layer, culturing was performed in a 5% CO2 incubator (37° C.). Upon aspirating off the culture supernatant in each well on the 4th day after addition of the test substance, 0.4 ml of a 3.3 mg/ml MTT solution dissolved in PBS (purchased from Sigma Corp.) was added to each well and culturing was performed for approximately 2 hours in a 5% CO2 incubator (37° C.). The tubes formed in the collagen gel of each well were stained by MTT, the tube images were loaded into a computer (Macintosh), and the total length of the tubes was determined by image analysis software “MacScope” (purchased from Mitani Corp.). The ratio of the total length of the tubes formed in the well containing the test substance with respect to the total length of the tubes formed in the well containing no test substance was expressed as a percentage, and the concentration of each test substance required for 50% inhibition of tube formation (IC50) was determined from the ratio value.
row,Compound,IC50 [nM]
1,"CNC(=O)n1ccc2cc(Oc3ccnc(NC(=O)N4CCC(O)CC4)c3)ccc21 [Example 39, N1-Methyl-5-(2-((4-hydroxypiperidino)carbonyl)amino-4-pyridyl)oxy-1H-1-indolecarboxamide]",5.1
2,"CNC(=O)n1ccc2cc(Oc3ccnc(NC(=O)N4CCC(C)(O)CC4)c3)ccc21 [Example 41, 5-(2-(((4-Hydroxy-4-methylpiperidin-1-yl)carbonyl)amino)pyridin-4-yloxy)-1H-1-indole-1-carboxylic acid methylamide]",2.1
3,"CNC(=O)n1ccc2cc(Oc3ccnc(NC(=O)N4CCC(N5CCCC5)CC4)c3)ccc21 [Example 46, N1-Methyl-5-(2-(((4-(pyrrolidin-1-yl)piperidin-1-yl)carbonyl)amino)pyridin-4-yloxy)-1H-1-indolecarboxamide]",7
4,"CNC(=O)n1ccc2cc(Oc3ccnc(NC(=O)N4CCC(N5CCCCC5)CC4)c3)ccc21 [Example 47, N1-Methyl-5-(2-(((4-(piperidin-1-yl)piperidin-1-yl)carbonyl)amino)pyridin-4-yloxy)-1H-1-indolecarboxamide]",5.8
5,"CNC(=O)n1ccc2cc(Oc3ccnc(NC(=O)N4CCOCC4)c3)ccc21 [Example 53, N4-(4-(1-(Methylamino)carbonyl-1H-5-indolyl)oxy-2-pyridyl)-4-morpholinecarboxamide]",6.7
